ChEMBL document CHEMBL1201862, “PubChem BioAssay data set” (2004)
Activity calls are given as the source filed them.

Legend:
[1] = target: T1, Corticotropin-releasing factor receptor 2/Corticotropin-releasing factor-binding protein (Homo sapiens, UniProt P24387+Q13324); experiment: activators of CRF receptor 2 with binding protein – uHTS hits, confirmation (AID 602473); assay type: functional; conditions: read-out: EC50_Mean
T1 sequence (Q13324 whole entry): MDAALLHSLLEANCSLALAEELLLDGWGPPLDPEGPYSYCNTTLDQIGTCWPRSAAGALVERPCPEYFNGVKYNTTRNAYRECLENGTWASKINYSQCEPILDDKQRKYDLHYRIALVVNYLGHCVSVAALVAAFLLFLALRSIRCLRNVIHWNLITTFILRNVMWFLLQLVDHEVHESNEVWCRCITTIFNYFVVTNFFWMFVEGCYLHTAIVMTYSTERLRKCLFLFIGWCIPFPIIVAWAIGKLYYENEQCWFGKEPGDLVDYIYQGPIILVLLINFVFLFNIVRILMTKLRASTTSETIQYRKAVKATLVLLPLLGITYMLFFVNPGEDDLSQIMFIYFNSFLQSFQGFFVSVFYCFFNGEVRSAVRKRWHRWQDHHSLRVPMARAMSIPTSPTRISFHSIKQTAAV
T1 sequence (P24387 whole entry): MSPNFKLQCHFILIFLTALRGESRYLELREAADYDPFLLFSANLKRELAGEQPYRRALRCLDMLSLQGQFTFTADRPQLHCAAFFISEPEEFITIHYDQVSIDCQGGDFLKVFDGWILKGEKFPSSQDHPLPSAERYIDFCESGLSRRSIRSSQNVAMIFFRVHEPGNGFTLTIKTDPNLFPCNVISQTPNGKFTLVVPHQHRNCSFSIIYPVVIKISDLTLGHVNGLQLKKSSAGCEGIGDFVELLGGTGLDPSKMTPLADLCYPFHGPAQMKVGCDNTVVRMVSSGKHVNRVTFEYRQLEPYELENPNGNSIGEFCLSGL

[2] = blockers of CRF-binding protein–CRF-R2 complex – cell-based, uHTS hits, 384-well, dose response (AID 651639); assay type: functional, Homo sapiens; conditions: read-out: IC50_Mean
[3] = target: T1, Corticotropin-releasing factor receptor 2/Corticotropin-releasing factor-binding protein; experiment: Dose Response confirmation of uHTS hits for small molecule antagonists of the CRF-binding protein and CRF-R2 receptor complex.; assay type: functional; conditions: read-out: IC50_Mean
[4] = target: T2, Short transient receptor potential channel 4 (Mus musculus, UniProt Q9QUQ5); experiment: block of DAMGO-driven TRPC4 calcium entry – cell-based, HEK293 TRPC4/mu-opioid, Fluo-4 calcium, dose response (AID 434942); assay type: functional;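 further: potency of inhibitors blocking the TRPC4 calcium response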
T2 sequence (Q9QUQ5 whole entry): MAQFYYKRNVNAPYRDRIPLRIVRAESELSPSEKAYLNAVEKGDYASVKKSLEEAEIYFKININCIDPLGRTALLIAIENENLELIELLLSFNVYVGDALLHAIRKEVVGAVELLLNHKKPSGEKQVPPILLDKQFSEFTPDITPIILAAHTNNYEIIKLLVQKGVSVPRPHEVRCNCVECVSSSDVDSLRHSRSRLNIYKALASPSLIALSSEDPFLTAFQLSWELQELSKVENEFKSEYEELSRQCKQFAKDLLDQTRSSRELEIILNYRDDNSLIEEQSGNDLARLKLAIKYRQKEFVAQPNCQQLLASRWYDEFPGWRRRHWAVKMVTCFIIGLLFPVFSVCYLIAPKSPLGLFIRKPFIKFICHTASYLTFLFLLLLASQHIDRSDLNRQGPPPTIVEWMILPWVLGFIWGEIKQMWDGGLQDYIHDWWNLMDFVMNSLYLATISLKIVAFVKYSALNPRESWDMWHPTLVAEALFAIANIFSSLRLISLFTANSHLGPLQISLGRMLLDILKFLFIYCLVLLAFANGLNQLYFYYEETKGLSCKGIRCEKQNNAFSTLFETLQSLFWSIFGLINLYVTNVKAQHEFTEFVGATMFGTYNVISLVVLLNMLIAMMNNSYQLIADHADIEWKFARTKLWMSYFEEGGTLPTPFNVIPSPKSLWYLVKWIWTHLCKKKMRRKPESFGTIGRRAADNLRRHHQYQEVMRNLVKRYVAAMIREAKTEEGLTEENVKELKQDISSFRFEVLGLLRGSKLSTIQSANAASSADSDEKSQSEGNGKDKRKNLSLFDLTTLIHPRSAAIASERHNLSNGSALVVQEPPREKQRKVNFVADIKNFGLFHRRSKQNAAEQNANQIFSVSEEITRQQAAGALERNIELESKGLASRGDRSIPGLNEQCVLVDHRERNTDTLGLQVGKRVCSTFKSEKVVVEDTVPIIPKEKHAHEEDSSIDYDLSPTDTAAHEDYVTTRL

[5] = target: T3, DNA repair protein RAD52 homolog (Homo sapiens, UniProt P43351); assay type: functional, biochemical
T3 sequence (P43351 whole entry): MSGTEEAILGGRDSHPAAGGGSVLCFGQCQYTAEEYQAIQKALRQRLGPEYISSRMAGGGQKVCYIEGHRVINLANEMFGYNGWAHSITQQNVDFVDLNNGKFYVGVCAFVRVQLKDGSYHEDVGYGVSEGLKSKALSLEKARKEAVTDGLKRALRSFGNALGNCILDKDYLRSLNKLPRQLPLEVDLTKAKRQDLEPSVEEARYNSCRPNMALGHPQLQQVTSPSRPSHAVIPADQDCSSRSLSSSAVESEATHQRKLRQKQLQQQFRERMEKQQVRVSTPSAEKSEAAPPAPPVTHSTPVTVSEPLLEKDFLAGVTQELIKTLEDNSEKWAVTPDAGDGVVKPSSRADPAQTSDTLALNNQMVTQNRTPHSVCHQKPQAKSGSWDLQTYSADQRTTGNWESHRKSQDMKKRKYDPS

[6] = target: T4, Heat shock factor protein 1 (Mus musculus, UniProt P38532); experiment: enhancement of HSF1-driven luciferase signal – cell-based, NIH3T3, luminescence, dose retest, confirmation (AID 435004); assay type: functional;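 further: stress induced by proteasome inhibitor MG132 added 30 min after compound; luciferase reporter driven by HSF1 response element in NIH3T3 cells; actives raise luminescence as potentiators of the MG132 stress response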
T4 sequence (P38532 whole entry): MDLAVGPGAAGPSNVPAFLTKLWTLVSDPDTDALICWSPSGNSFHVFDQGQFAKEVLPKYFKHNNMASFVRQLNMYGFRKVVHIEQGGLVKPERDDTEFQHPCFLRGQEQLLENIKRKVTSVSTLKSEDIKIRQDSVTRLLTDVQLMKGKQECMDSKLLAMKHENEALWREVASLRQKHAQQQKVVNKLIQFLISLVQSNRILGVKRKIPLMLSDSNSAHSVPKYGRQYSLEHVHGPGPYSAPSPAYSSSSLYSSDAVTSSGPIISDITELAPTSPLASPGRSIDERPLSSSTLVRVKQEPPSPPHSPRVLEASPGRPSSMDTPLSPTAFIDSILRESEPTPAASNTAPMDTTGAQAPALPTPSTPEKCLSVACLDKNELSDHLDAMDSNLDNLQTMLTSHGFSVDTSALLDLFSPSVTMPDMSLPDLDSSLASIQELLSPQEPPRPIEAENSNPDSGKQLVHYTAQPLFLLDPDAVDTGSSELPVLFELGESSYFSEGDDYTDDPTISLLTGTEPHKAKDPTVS

[7] = target: T5, Methionyl-tRNA synthetase, putative (Trypanosoma brucei brucei, UniProt Q38C91); assay type: functional, Trypanosoma brucei brucei strain 927/4 GUTat10.1
T5 sequence (Q38C91 whole entry): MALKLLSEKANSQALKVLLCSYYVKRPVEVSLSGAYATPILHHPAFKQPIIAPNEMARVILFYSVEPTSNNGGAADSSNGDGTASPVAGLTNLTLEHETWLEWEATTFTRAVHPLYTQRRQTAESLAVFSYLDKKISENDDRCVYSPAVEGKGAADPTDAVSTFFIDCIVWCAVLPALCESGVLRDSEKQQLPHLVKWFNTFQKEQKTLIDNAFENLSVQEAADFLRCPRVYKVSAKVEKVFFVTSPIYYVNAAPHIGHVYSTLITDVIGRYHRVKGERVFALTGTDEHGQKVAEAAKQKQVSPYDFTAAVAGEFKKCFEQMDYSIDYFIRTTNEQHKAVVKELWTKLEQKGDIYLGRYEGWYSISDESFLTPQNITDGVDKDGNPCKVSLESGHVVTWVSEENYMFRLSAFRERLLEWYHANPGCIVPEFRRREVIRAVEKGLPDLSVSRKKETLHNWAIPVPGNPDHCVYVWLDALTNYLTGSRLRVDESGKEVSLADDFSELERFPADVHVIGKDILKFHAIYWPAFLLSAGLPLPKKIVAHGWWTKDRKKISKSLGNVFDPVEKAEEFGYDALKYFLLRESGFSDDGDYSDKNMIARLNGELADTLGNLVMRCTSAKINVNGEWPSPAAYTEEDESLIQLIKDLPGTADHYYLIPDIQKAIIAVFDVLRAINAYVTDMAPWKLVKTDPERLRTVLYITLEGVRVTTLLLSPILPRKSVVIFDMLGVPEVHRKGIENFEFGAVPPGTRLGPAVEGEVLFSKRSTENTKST

[8] = Counterscreen for inhibitors of Trypanosoma brucei methionyl tRNA synthetase (MetRS): Luminescence-based cell-based high throughput dose response assay to identify compounds that are cytotoxic to Jurkat human T lymphocyte cells.; assay type: functional
[9] = target: T5, Methionyl-tRNA synthetase, putative; assay type: functional, Trypanosoma brucei brucei strain 927/4 GUTat10.1; remark: listed apart in the source
[10] = target: T6, Probable nicotinate-nucleotide adenylyltransferase (Staphylococcus aureus (strain N315), UniProt P65502); assay type: functional, Staphylococcus aureus subsp. aureus N315; conditions: read-out: IC50_Mean;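 on IC50 Mean: confirmatory dose-response retesting of NadD inhibitor hits first found in an ultra-high-throughput screen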
T6 sequence (P65502 whole entry): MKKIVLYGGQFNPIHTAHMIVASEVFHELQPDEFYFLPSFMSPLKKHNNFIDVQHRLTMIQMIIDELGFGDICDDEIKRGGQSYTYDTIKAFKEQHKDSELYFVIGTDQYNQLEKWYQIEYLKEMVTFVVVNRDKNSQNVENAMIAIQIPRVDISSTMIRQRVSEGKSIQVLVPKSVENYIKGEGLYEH

[11] = target: T6, Probable nicotinate-nucleotide adenylyltransferase; assay type: functional, Staphylococcus aureus subsp. aureus N315
Vero = experiment: cells; assay type: functional; conditions: Chlorocebus sabaeus
[12] = target: 72 kDa type IV collagenase (Homo sapiens, UniProt P08253); experiment: Dose Response validation of uHTS RPN11 inhibitor hits using a MMP-2 Fluorescence assay.; assay type: functional
Sequence of 72 kDa type IV collagenase (P08253 whole entry): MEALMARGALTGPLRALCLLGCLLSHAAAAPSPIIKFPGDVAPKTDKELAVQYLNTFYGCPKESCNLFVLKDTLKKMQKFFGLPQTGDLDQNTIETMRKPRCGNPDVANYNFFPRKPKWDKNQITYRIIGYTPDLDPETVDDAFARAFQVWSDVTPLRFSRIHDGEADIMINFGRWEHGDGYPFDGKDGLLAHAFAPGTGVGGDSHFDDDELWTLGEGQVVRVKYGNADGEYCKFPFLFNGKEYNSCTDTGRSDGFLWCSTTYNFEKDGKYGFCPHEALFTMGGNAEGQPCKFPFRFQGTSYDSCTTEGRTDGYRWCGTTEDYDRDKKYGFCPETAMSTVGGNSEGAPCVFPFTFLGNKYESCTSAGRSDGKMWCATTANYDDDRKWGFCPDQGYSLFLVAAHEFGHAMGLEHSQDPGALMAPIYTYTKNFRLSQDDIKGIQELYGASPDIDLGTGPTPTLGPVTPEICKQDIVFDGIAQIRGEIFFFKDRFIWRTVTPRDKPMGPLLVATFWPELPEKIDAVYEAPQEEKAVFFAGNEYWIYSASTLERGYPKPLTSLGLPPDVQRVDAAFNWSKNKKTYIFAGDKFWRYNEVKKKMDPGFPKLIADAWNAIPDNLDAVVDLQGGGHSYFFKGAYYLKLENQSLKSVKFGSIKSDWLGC

Prothrombin = Prothrombin (Bos taurus, UniProt P00735); experiment: thrombin protease inhibitors – biochemical, fluorescence polarization, uHTS hits, dose response (AID 602369); assay type: functional
Phospholipase A2 = Phospholipase A2 (Homo sapiens, UniProt P04054); assay type: functional;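 further: confirmatory dose-response counterscreen on phospholipase A2, testing hits that came from an ultra-high-throughput screen for ATG4B inhibitors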
Sequence of Phospholipase A2 (P04054 whole entry): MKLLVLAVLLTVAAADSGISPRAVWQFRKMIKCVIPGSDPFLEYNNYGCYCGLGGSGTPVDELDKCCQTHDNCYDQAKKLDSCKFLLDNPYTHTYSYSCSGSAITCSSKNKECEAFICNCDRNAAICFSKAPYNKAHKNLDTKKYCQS

[13] = target: 26S proteasome non-ATPase regulatory subunit 14 (Homo sapiens, UniProt O00487); experiment: inhibition of proteasome subunit RPN11 – biochemical, fluorescence polarization, uHTS hits, confirmation (AID 602368); assay type: functional
Sequence of 26S proteasome non-ATPase regulatory subunit 14 (O00487 whole entry): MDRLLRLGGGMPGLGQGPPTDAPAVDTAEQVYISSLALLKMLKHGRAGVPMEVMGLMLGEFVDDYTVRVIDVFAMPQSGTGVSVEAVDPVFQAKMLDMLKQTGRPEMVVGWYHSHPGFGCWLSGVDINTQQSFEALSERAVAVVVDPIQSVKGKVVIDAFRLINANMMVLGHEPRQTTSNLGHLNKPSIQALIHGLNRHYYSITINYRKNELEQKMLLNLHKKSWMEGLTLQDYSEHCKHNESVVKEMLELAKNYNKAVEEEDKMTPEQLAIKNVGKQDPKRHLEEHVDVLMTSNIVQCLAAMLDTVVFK

Cysteine protease ATG4B = target: T7, Cysteine protease ATG4B (Homo sapiens, UniProt Q9Y4P1); assay type: functional;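 further: Fluorescence-based dose-response confirmation assay measuring inhibition of ATG4B activity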
T7 sequence (Q9Y4P1 whole entry): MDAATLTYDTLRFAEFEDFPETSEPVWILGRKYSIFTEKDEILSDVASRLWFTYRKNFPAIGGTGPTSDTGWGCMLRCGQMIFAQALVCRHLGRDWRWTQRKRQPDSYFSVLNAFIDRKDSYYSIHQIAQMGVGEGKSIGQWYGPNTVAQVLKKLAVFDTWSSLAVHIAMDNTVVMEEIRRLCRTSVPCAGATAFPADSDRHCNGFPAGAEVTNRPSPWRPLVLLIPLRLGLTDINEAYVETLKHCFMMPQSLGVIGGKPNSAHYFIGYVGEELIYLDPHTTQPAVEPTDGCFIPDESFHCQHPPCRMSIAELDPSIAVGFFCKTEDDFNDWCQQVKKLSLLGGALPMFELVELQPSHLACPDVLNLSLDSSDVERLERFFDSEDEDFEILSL

Row | SMILES | EC50 [1] | IC50 [2] | IC50 [3] | IC50 [7] | IC50 [8] | IC50 [9] | further results
1 | N#Cc1ccsc1NC(=O)c1cccc([N+](=O)[O-])c1 | 4.08 µM (active) | > 20 µM (inactive) | 3.12 µM (active) | – | – | – | –
2 | CCOc1ccc(S(=O)(=O)n2ccc(C)n2)c2ccccc12 | 21.2 µM (active) | 11.7 µM (active) | < 0.368 µM (active) | – | – | – | –
3 | CCc1ccc2nc(NC(=N)N)nc(C)c2c1 | – | – | – | – | – | – | EC50 [4]: 15 µM (active); AC50 [5]: 16.8 µM (active)
4 | CCOC(=O)c1sc(NC(=O)Nc2ccccc2)cc1C | – | – | – | 4.39 µM (active) | 45 µM (inactive) | 43.9 µM (inactive) | EC50 [6]: > 260 µM (inconclusive)
5 | Nc1ccccc1C(=O)NNC(=O)/C(O)=C/C(=O)c1ccccc1 | – | – | – | – | – | – | IC50 [10]: 12 µM (active); IC50 [11]: 4.63 µM (active)
6 | CCCCCCCCCCCCCCC(O)C[N+](C)(CCO)CCO (configuration not stated) | – | – | – | – | – | – | CC50 (Vero): 13.1 µM (active); IC50 [12]: 85 µM (active); IC50 (Prothrombin): 50 µM (active); IC50 (Phospholipase A2): 7.95 µM (active); IC50 [13]: 25.3 µM (active); IC50 (Cysteine protease ATG4B): 8.23 µM (active); AC50 [5]: 8.88 µM (active)
7 | O=C(NCc1cc(Cl)cc(Cl)c1)c1csc(COCCO)n1 | – | – | – | 12.2 µM (inactive) | 83.3 µM (inactive) | 5.4 µM (active) | –
8 | Cc1ccc(S(=O)(=O)N2CCCCC2)cc1C(=O)N(CCc1ccccc1)Cc1ccccc1 | > 53 µM (inactive) | 19.3 µM (active) | 1.19 µM (active) | – | – | – | –
9 | CCOc1ccccc1NS(=O)(=O)c1c(C)[nH]c(C)c1C(=O)N1CCCCC1 | – | – | – | 26.1 µM (inactive) | 83.3 µM (inactive) | 11.2 µM (inactive) | –
10 | Cc1ccc(-n2nc3c(c2NC(=O)/C=C\c2ccc4c(c2)OCO4)CSC3)c(C)c1 | – | – | – | – | – | – | IC50 [10]: 21.5 µM (active); IC50 [11]: 5.88 µM (active)
